{"source": "paper PMC4632357", "about": "“Impact of chrysosplenetin on the pharmacokinetics and anti-malarial efficacy of artemisinin against Plasmodium berghei as well as in vitro CYP450 enzymatic activities in rat liver microsome” (Malaria Journal, 2015)", "key": {"CYP1A2": {"target": "T1, CYP1A2 (Rattus norvegicus, UniProt P04799)", "T1 sequence (P04799 1-513)": "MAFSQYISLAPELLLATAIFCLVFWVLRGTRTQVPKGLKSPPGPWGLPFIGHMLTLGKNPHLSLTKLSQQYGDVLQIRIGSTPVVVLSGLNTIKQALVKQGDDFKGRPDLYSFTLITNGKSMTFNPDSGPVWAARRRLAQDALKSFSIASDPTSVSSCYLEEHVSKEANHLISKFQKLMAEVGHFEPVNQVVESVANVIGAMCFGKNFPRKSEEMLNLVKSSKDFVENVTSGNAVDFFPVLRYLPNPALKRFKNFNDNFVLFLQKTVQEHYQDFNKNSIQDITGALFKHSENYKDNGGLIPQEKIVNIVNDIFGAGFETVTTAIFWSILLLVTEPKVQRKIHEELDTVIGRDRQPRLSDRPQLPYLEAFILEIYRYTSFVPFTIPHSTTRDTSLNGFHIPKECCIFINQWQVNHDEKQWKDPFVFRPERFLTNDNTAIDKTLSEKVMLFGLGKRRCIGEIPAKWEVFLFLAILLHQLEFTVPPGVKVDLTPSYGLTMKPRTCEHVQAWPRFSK", "assay": "In vitro rat liver microsome experiment, CYP1A2 (probe PN)", "type": "in vitro ADME"}, "CYP2D6": {"tested_on": "CYP2D6", "assay": "In vitro rat liver microsome experiment, CYP2D6 (probe DM)", "type": "in vitro ADME", "procedure": "(§1) Total reaction volume was complemented to 200 μL by PBS. After pre-incubating for 3 min at 37 °C, the reaction was initiated by the addition of NADPH solution (incubation time was optimized as 45 min for PN; 60 min for CA, 15 min for OPZ; 20 min for DM; 90 min for CLZ; 15 min for MDZ). 200 μL ice acetonitrile was added as stop reagent. After a vortex for 3 min and centrifugation for 10 min at 14,000g, an aliquot of 20 μL supernatant was injected into the HPLC system at an interval of 10 min. The amount of methanol in diluted concentrations (<1 %) had no effect on liver microsomes. All the testing groups were in three replicates (n = 3). Under the optimized condition, Vmax, Michaelis constant (Km), enzyme activity (E%), and IC50 values were obtained."}, "CYP2E1": {"target": "CYP2E1 (Rattus norvegicus, UniProt P05182)", "sequence (P05182 whole entry)": "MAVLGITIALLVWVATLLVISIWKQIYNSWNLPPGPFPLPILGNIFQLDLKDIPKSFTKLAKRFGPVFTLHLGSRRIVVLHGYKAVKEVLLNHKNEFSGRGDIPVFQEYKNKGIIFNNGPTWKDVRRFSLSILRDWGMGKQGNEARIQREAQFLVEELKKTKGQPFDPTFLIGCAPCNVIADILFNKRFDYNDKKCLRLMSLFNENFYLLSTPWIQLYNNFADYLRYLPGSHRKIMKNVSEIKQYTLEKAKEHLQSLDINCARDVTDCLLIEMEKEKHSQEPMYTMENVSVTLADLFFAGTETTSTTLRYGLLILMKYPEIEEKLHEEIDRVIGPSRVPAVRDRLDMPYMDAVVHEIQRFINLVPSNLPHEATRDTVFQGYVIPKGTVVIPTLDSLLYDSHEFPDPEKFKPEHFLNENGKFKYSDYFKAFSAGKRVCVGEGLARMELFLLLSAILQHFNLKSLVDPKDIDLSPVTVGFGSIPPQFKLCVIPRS", "assay": "In vitro rat liver microsome experiment, CYP2E1 (probe CLZ)", "type": "in vitro ADME"}, "CYP3A": {"tested_on": "CYP3A", "assay": "In vitro rat liver microsome experiment, CYP3A (probe MDZ)", "type": "in vitro ADME", "procedure": "as §1\nIncubation systems including 1.0 mg/mL RLM, PN (12.5, 25.0, and 50.0 μM), NPDPH, and CHR (0, 2, 4, 8 μM) for 1A2 or 0.5 mg/mL RLM, MDZ (2.5, 5.0, 10.0 μM), NPDPH, and CHR (0, 2, 4, 8 μM) for CYP3A were employed as above (n = 3). A serial of Lineweaver–Burk plots by 1/[S] versus 1/V were prepared individually under different concentrations of CHR. The location of intersection point for the linear lines decided the type of inhibition. Namely, if the point lied in Y axis it was competitive inhibition and if it lied in X axis it was non-competitive inhibition. Finally, if the linear lines were paralleled, it was uncompetitive inhibition. Concomitantly, inhibition constant (Ki) was calculated when a second plotting was given by intercepts of the four lines versus [I] (inhibitor concentration)."}, "CYP2A [1]": {"tested_on": "CYP2A", "assay": "In vitro rat liver microsome experiment, CYP2A (probe CA)"}, "CYP2C19 [2]": {"tested_on": "CYP2C19", "assay": "In vitro rat liver microsome experiment, CYP2C19 (probe OPZ)"}, "P. berghei K173 strain": {"tested_on": "P. berghei K173 strain", "assay": "In vivo anti-malarial efficacy (chemo-suppressive study) in infected mice", "details": "for Parasitemia: placebo 22.15 ± 6.25"}, "CYP2A [3]": {"tested_on": "CYP2A", "assay": "in vitro", "details": "rat"}, "[4]": {"assay": "Pharmacokinetics of ART in rats in absence and presence of CHR", "type": "in vivo", "details": "ART in rat plasma, ART 5 mg/kg intramuscular on day 3, 1 h after 3-day oral CHR (5, 10, 20 mg/kg for 1:1, 1:2, 1:4) or CMC-Na, n = 5, mean ± SD", "procedure": "Male SD rats (200-240 g) were supplied by Laboratory Animal Center of […] Medical University (Grade II, Certificate No. […] Animals were acclimatized in environmentally controlled breeding cages for at least 3 days before being used and were provided with standard laboratory food and water and were fasted for 12 h prior to the study. Water was freely available for rats during experiments. The experimental protocol was approved by the University Ethics Committee. All procedures involving animals were in accordance with the Regulations of the Experimental Animal Administration, State Committee of Science and Technology, People's Republic of China. 20 rats were randomly divided into 4 groups (n = 5). Group A was the control vehicle (ART alone) and group L, M, and H were the combination groups with CHR in three fixed ratios (1:1, 1:2, and 1:4). […] Group A was orally given by 0.5 % CMC-Na solution once per day for 3 days. On day 3, an intramuscular injection of ART (5 mg/kg) was subsequently administered 1 h after CHR or CMC-Na solution pre-exposure. […] Two hours later, animals took food and water freely to replenish. Plasma samples were separated by centrifugation 3500g for 10 min and 200 μL plasmas were stored at -20 °C until analysis. To 100 μL blank plasma, 50 μL ARM working solution (IS, 2 μg/mL), 100 μL methanol aqueous solution (50:50, v/v), and a standard solution or quality control (QC) solution were added. After vortex mixing for 1 min, the sample was extracted with 3 × 3 mL of methyl tert-butyl ether with gentle shaking for 10 min followed by centrifugation at 3500g for 10 min. […] The residue was reconstituted in 100 μL methanol and was filtered through a 0.22 μm nylon filter. Aliquots (10 μL) of the solution were injected onto the LC-MS analysis. Pharmacokinetic parameters were computed from plasma concentration-time profiles of ART by software DAS 3.0."}, "[5]": {"set-up": "method as in PMID 17521300, PMID 18064444, PMID 9443848", "details": "cited from earlier work"}, "CYP2C19 [6]": {"tested_on": "CYP2C19", "assay": "in vitro", "details": "rat"}, "[7]": {"substrate": "CCOc1ccc(NC(C)=O)cc1", "assay": "cells, lysate or membranes named", "details": "other: probe substrate in rat liver microsomes; 37.0 °C"}, "[8]": {"details": "Lineweaver–Burk plots, rat liver microsomes"}, "[9]": {"details": "moderate: 1 < IC50 < 10 μM, criteria of ref 21"}, "[10]": {"details": "rat liver microsomes, CHR 0–50 μM, P > 0.05"}, "[11]": {"details": "probe substrate in rat liver microsomes"}}}
{"molecule": "COc1cc(-c2oc3cc(OC)c(OC)c(O)c3c(=O)c2OC)ccc1O", "note": "[CHR, chrysosplenetin]", "values": [{"measurement": "Ki", "setting": "CYP1A2; 1.0 mg/mL RLM, PN 12.5, 25.0, 50.0 μM, CHR 0, 2, 4, 8 μM, second plot of Lineweaver–Burk intercepts", "value": 4.07, "unit": "µM"}, {"measurement": "inhibition type", "setting": "CYP1A2; [8]", "value": "noncompetitive"}, {"measurement": "inhibitor strength class", "setting": "CYP1A2; [9]", "value": "moderate inhibitor"}, {"measurement": "IC50", "setting": "CYP1A2; rat liver microsomes, PN 25 μM, GraphPad Prism 5.0", "value": 4.61, "unit": "µM"}, {"measurement": "impact on enzyme activity", "setting": "CYP2D6; [10]", "value": "no impact"}, {"measurement": "IC50", "setting": "CYP2E1; rat liver microsomes, CLZ 15 μM, GraphPad Prism 5.0", "value": 28.2, "unit": "µM"}, {"measurement": "inhibitor strength class", "setting": "CYP2E1; weak: IC50 >10 μM, criteria of ref 21", "value": "weak inhibitor"}, {"measurement": "inhibition type", "setting": "CYP3A; [8]", "value": "uncompetitive"}, {"measurement": "inhibitor strength class", "setting": "CYP3A; [9]", "value": "moderate inhibitor"}, {"measurement": "IC50 at 15 min", "setting": "CYP3A; probe midazolam (MDZ) 5 μM, rat liver microsomes, MDZ 5 μM, GraphPad Prism 5.0", "value": 3.38, "unit": "µM"}, {"measurement": "Ki at 15 min", "setting": "CYP3A; rat, rat liver microsomes, probe midazolam (MDZ) 2.5, 0.5 mg/mL RLM, MDZ 2.5, 5.0, 10.0 μM, CHR 0, 2, 4, 8 μM, second plot of Lineweaver–Burk intercepts", "value": 3.71, "unit": "µM"}, {"measurement": "impact on enzyme activity", "setting": "CYP2A [1]; [10]", "value": "no impact"}, {"measurement": "inhibitor strength class", "setting": "CYP2C19 [2]; [9]", "value": "moderate inhibitor"}, {"measurement": "IC50 at 15 min", "setting": "CYP2C19 [2]; rat, microsomes", "value": 6.23, "unit": "µM"}, {"measurement": "Parasitemia", "setting": "P. berghei K173 strain; CHR alone 5 mg/kg (CHR-L), Kunming mice, n = 10", "value": "19.74 ± 13.33", "unit": "%"}, {"measurement": "Parasitemia", "setting": "P. berghei K173 strain; CHR alone 10 mg/kg (CHR-M), Kunming mice, n = 10", "value": "17.19 ± 5.45", "unit": "%"}, {"measurement": "Parasitemia", "setting": "P. berghei K173 strain; CHR alone 20 mg/kg (CHR-H), Kunming mice, n = 10", "value": "18.32 ± 8.86", "unit": "%"}]}
{"molecule": "O=c1ccc2ccccc2o1", "note": "[CA, coumarin, reference compound]", "values": [{"measurement": "Km at 60 min", "setting": "CYP2A [3]", "value": 8.9, "unit": "µM"}, {"measurement": "Vmax", "setting": "CYP2A [1]; [11]", "value": 0.12, "unit": "nmol/min/mg proteins"}]}
{"molecule": "COc1ccc2c(c1)[C@]13CCCC[C@@H]1[C@H](C2)N(C)CC3", "note": "[DM, dextromethophan]", "values": [{"measurement": "Km", "setting": "CYP2D6; [11]", "value": 28.9, "unit": "µM"}, {"measurement": "Vmax", "setting": "CYP2D6; [11]", "value": 0.20, "unit": "nmol/min/mg proteins"}]}
{"molecule": "Cc1ncc2n1-c1ccc(Cl)cc1C(c1ccccc1F)=NC2", "note": "[MDZ, Midazolam, reference compound]", "values": [{"measurement": "Km at 15 min", "setting": "CYP3A; [11]", "value": 7.88, "unit": "µM"}, {"measurement": "Vmax", "setting": "CYP3A; [11]", "value": 0.81, "unit": "nmol/min/mg proteins"}]}
{"molecule": "C[C@@H]1CC[C@H]2[C@@H](C)C(=O)O[C@@H]3O[C@@]4(C)CC[C@@H]1[C@]32OO4", "note": "[ART, Artemisinin]", "values": [{"measurement": "AUC0–t", "setting": "[4]", "value": "390.58 ± 32.46", "unit": "µg·h/mL"}, {"measurement": "Cmax", "setting": "[4]; male", "value": "51.6 ± 9.47", "unit": "µg/mL"}, {"measurement": "half-life", "setting": "[4]; male", "value": "3.62 ± 0.86", "unit": "h"}, {"measurement": "clearance", "setting": "[4]; male, read-out: CLz (converted)", "value": 0.217, "unit": "mL/min/kg"}, {"measurement": "oral bioavailability", "setting": "[5]", "value": "8–10%"}, {"measurement": "Parasitemia", "setting": "P. berghei K173 strain; Kunming mice, ART 5 mg/kg alone or with CHR 5, 10, 20 mg/kg (1:1, 1:2, 1:4), 3 days, 24 h after last dosing, n = 10", "value": "13.95 ± 7.89", "unit": "%"}, {"measurement": "decrease of parasitaemia (%) compared with placebo", "setting": "P. berghei K173 strain; mice, P < 0.05", "value": 1.59, "unit": "folds"}, {"measurement": "Inhibition", "setting": "P. berghei K173 strain; relative to placebo, Kunming mice, ART 5 mg/kg alone or with CHR 5, 10, 20 mg/kg, n = 10", "value": 37.06, "unit": "%"}]}
{"molecule": "COc1ccc2[nH]c([S+]([O-])Cc3ncc(C)c(OC)c3C)nc2c1", "note": "(centres unmarked) [OPZ, omeprazole, reference compound]", "values": [{"measurement": "Km at 15 min", "setting": "CYP2C19 [6]", "value": 24.1, "unit": "µM"}, {"measurement": "Vmax", "setting": "CYP2C19 [2]; [11]", "value": 0.58, "unit": "nmol/min/mg proteins"}]}
{"molecule": "CYP1A2 (Rattus norvegicus) (protein) MAFSQYISLAPELLLATAIFCLVFWVLRGTRTQVPKGLKSPPGPWGLPFIGHMLTLGKNPHLSLTKLSQQYGDVLQIRIGSTPVVVLSGLNTIKQALVKQGDDFKGRPDLYSFTLITNGKSMTFNPDSGPVWAARRRLAQDALKSFSIASDPTSVSSCYLEEHVSKEANHLISKFQKLMAEVGHFEPVNQVVESVANVIGAMCFGKNFPRKSEEMLNLVKSSKDFVENVTSGNAVDFFPVLRYLPNPALKRFKNFNDNFVLFLQKTVQEHYQDFNKNSIQDITGALFKHSENYKDNGGLIPQEKIVNIVNDIFGAGFETVTTAIFWSILLLVTEPKVQRKIHEELDTVIGRDRQPRLSDRPQLPYLEAFILEIYRYTSFVPFTIPHSTTRDTSLNGFHIPKECCIFINQWQVNHDEKQWKDPFVFRPERFLTNDNTAIDKTLSEKVMLFGLGKRRCIGEIPAKWEVFLFLAILLHQLEFTVPPGVKVDLTPSYGLTMKPRTCEHVQAWPRFSK", "values": [{"measurement": "Km", "setting": "[7]", "value": 30.88, "unit": "µM"}, {"measurement": "Vmax", "setting": "[7]", "value": 0.14, "unit": "nmol/min/mg proteins"}]}
